Read-outs that look alike come from different tables or passages of the source.
Experiments:
KG-1 cells = test: Long term proliferation assay, Cell Titer-Glo read-out; type: cell-based; settings: for IC50: Homo sapiens
Procedure: (§1) Compounds of invention are tested in the 5 suspension lines by 14-day long-term proliferation assay.
(§2) The compound is tested in 10-pt dose titration (client will determine the starting concentration and the dilution scheme) and the final DMSO concentration is kept at 0.2%.
(§3) On Day 0, in a flat bottom 96-well plate, add 100 μL of cells per well at the densities optimized. Prepare compounds in DMSO at 500× final concentration. Dilute the compounds with DMSO at the dilution. Dilute the compounds in media at 3× final concentration. Add 50 μL of compound or DMSO at 3× final concentration to each well. Final volume in each well is 150 μL, and final concentration of DMSO is 0.2%. Also include 3 untreated control wells, by adding 50 μL of media alone. Incubate plates for 96 hours.
(§4) To do this take the total viable cell count calculated using step: • 1. Take the average of the replicates for each dose in order to be used in splitting the cells. • 2. Use a 96 well V-bottom plate to spin down the cells to remove old media and compound to split the cells. • 3. Based on the split ratio place the proper amount of media and cells into the V-bottom plate, and spin the plate at 1100 rpm for 5 minutes. • 4. Following the spin remove the media, careful not to disturb the cell pellet. Re-suspend pellet in 100 μL fresh media, and add to a new 96-well flat bottom plate. • 5. Add fresh compound, in the same manner as Step 3). • 6. Incubate plates for 72 hours. Repeat steps 5)-10) on Day 7. • 7. Incubate plates for 96 hours. Repeat Step 5)-10) on Day 11. • 8. Incubate 72 hours and repeat step 5) to take a final count. • 9. Data Analysis
(§5) To calculate growth for days 4, 7, 11, and 14: • 1. Calculate the split factor for day 4 to 7, day 7 to 11, and day 11-14. The split factor is the viable cells/mL on Day X (either 4, 7 or 11) divided by the density the cells are being split back to. • 2. For growth of cells from day 4 to 7, multiply the day 7 viable cells/mL density by the split factor from day 4. • 3. For growth of cells from day 7 to 11, multiply the day 11 viable cells/mL density by the days 4, and 7 split factors. • 4. For growth of cells from Day 11 to 14, multiply the Day 14 viable cells/mL density by the days 4, 7, and 11 split factors. • 5. Plot growth on semi-log chart (viable cells/mL on Y axis, in log, and days on X axis). • 6. The growth inhibition was calculated with the formula ((untreated cell numbers-treated cell numbers)/untreated cell)). • 7. Calculate the IC50 for each compound in each line using XLFit (Sigmoidal Dose-Response Model, y=(Bottom+((Top-Bottom)/(1+((IC50/×)^Hill))))).

OCI-AML-3 cells = test: as above; type: cell-based; settings: for IC50: Homo sapiens; for % max: OCI-AML3
Procedure: as §1, §2, §3, §4, §5

MOLM-13 cells = test: Long term proliferation assay, InCell read-out; type: cell-based, human; settings: for IC50: Homo sapiens
Procedure: as §1, §2, §3, §4, §5

MV4-11 cells = test: Long term proliferation assay, InCell read-out; type: cell-based, human; settings: for IC50: Homo sapiens
Procedure: as §1, §2, §3, §4, §5

SK-LU-1 cells = test: Proliferation assay, cells in adhesion; type: cell-based; settings: for IC50: Homo sapiens
SK-LU-1/AMG510 cells = test: Proliferation assay, cells in adhesion; type: cell-based; settings: for IC50: Homo sapiens

CN(C)C/C=C/C(=O)Nc1ccc(CC(=O)Nc2ccc(-c3cc4c(N5CCOCC5)ncnc4[nH]3)cc2)cc1 [Compound 5]
IC50 (KG-1 cells; 96 h, Day 4, Cell Titer-Glo, read-out: Day 4 IC50): > 5000 nM
IC50 (KG-1 cells; 168 h, Day 7, Cell Titer-Glo, read-out: Day 7 IC50): > 5000 nM
IC50 (KG-1 cells; 264 h, Day 11, Cell Titer-Glo, read-out: Day 11 IC50): 4680 nM
IC50 (KG-1 cells; 336 h, Day 14, Cell Titer-Glo, read-out: Day 14 IC50): 4070 nM
IC50 (KG-1 cells; T4, CellTiter-Glo, read-out: IC50): > 5000 nM
IC50 (KG-1 cells; T4, CellTiter-Glo, read-out: pIC50 (converted)): > 5010 nM
IC50 (KG-1 cells; T11, CellTiter-Glo, read-out: IC50): 4680 nM
IC50 (KG-1 cells; T11, CellTiter-Glo, read-out: pIC50 (converted)): 4680 nM
% max (KG-1 cells; T4, CellTiter-Glo): <50%
% max (KG-1 cells; T11, CellTiter-Glo): 59%
IC50 (OCI-AML-3 cells; OCI-AML-3, 96 h, OCI-AML-3, Day 4, Cell Titer-Glo, read-out: Day 4 IC50): 830 nM
IC50 (OCI-AML-3 cells; OCI-AML-3, 168 h, OCI-AML-3, Day 7, Cell Titer-Glo, read-out: Day 7 IC50): 660 nM
IC50 (OCI-AML-3 cells; OCI-AML-3, 264 h, OCI-AML-3, Day 11, Cell Titer-Glo, read-out: Day 11 IC50): 580 nM
IC50 (OCI-AML-3 cells; OCI-AML-3, 336 h, OCI-AML-3, Day 14, Cell Titer-Glo, read-out: Day 14 IC50): 600 nM
IC50 (OCI-AML-3 cells; OCI-AML-3, OCI-AML3, T4, CellTiter-Glo, read-out: IC50): 830 nM
IC50 (OCI-AML-3 cells; OCI-AML-3, OCI-AML3, T4, CellTiter-Glo, read-out: pIC50 (converted)): 832 nM
IC50 (OCI-AML-3 cells; OCI-AML-3, OCI-AML3, T11, CellTiter-Glo, read-out: IC50): 580 nM
IC50 (OCI-AML-3 cells; OCI-AML-3, OCI-AML3, T11, CellTiter-Glo, read-out: pIC50 (converted)): 575 nM
% max (OCI-AML-3 cells; T4, CellTiter-Glo): 97%
% max (OCI-AML-3 cells; T11, CellTiter-Glo): 99%
IC50 (MOLM-13 cells; MOLM-13, 96 h, MOLM-13, Day 4, read-out: Day 4 IC50): 150 nM
IC50 (MOLM-13 cells; MOLM-13, 264 h, MOLM-13, Day 11, read-out: Day 11 IC50): 380 nM
IC50 (MOLM-13 cells; MOLM-13, MOLM-13, T4, read-out: IC50): 150 nM
IC50 (MOLM-13 cells; MOLM-13, MOLM-13, T4, read-out: pIC50 (converted)): 148 nM
IC50 (MOLM-13 cells; MOLM-13, MOLM-13, T11, read-out: IC50): 380 nM
IC50 (MOLM-13 cells; MOLM-13, MOLM-13, T11, read-out: pIC50 (converted)): 380 nM
% max (MOLM-13 cells; MOLM-13, T4): 97%
% max (MOLM-13 cells; MOLM-13, T11): 98%
IC50 (MV4-11 cells; MV4-11, 96 h, MV4-11, Day 4, read-out: Day 4 IC50): 420 nM
IC50 (MV4-11 cells; MV4-11, 264 h, MV4-11, Day 11, read-out: Day 11 IC50): 490 nM
IC50 (MV4-11 cells; MV4-11, MV4-11, T4, read-out: IC50): 420 nM
IC50 (MV4-11 cells; MV4-11, MV4-11, T4, read-out: pIC50 (converted)): 417 nM
IC50 (MV4-11 cells; MV4-11, MV4-11, T11, read-out: IC50): 490 nM
IC50 (MV4-11 cells; MV4-11, MV4-11, T11, read-out: pIC50 (converted)): 490 nM
% max (MV4-11 cells; MV4-11, T4): 83%
% max (MV4-11 cells; MV4-11, T11): 83%
IC50 (SK-LU-1 cells; SK-LU-1, SK-LU-1, T4, read-out: IC50): > 5000 nM
IC50 (SK-LU-1 cells; SK-LU-1, SK-LU-1, T4, read-out: pIC50 (converted)): > 5010 nM
IC50 (SK-LU-1 cells; SK-LU-1, SK-LU-1, T7, read-out: IC50): > 5000 nM
IC50 (SK-LU-1 cells; SK-LU-1, SK-LU-1, T7, read-out: pIC50 (converted)): > 5010 nM
IC50 (SK-LU-1 cells; SK-LU-1, SK-LU-1, T11, read-out: IC50): > 5000 nM
IC50 (SK-LU-1 cells; SK-LU-1, SK-LU-1, T11, read-out: pIC50 (converted)): > 5010 nM
% max (SK-LU-1 cells; SK-LU-1, T4): <50%
% max (SK-LU-1 cells; SK-LU-1, T7): <50%
% max (SK-LU-1 cells; SK-LU-1, T11): <50%
IC50 (SK-LU-1/AMG510 cells; SK-LU-1, SK-LU-1/AMG510, T4, read-out: IC50): > 5000 nM
IC50 (SK-LU-1/AMG510 cells; SK-LU-1, SK-LU-1/AMG510, T4, read-out: pIC50 (converted)): > 5010 nM
IC50 (SK-LU-1/AMG510 cells; SK-LU-1, SK-LU-1/AMG510, T7, read-out: IC50): > 5000 nM
IC50 (SK-LU-1/AMG510 cells; SK-LU-1, SK-LU-1/AMG510, T7, read-out: pIC50 (converted)): > 5010 nM
IC50 (SK-LU-1/AMG510 cells; SK-LU-1/AMG510, T11, read-out: IC50): > 5000 nM
IC50 (SK-LU-1/AMG510 cells; SK-LU-1/AMG510, T11, read-out: pIC50 (converted)): > 5010 nM
% max (SK-LU-1/AMG510 cells; SK-LU-1/AMG510, T4): <50%
% max (SK-LU-1/AMG510 cells; SK-LU-1/AMG510, T7): <50%
% max (SK-LU-1/AMG510 cells; SK-LU-1/AMG510, T11): <50%
